Data as given in patent publication US20090038025A1, “Selection system for maize transformation” (BASF Plant Science GmbH, priority 2005, published 2009).

System: corn immature embryos
Test: Immature embryo germination inhibition bioassay (kill curves)
Format: cell-based, Zea mays
Details: immature embryos 2 mm on germination medium, 27° C. in light; shoot and primary root length 7 days after dissection
Protocol: In order to establish effective concentrations of D-Serine and D-Alanine on inhibiting growth of tissue cultured corn cells, a bioassay system using immature embryos was applied. Immature embryos 2 mm in length were dissected onto germination medium with the selection agents, and incubated at 27° C. in light. The lengths of the shoot and primary root of a germinated seedling were measured 7 days after embryo dissection (FIGS. 1A and 1B).

SMILES	concentration above which significant/pronounced growth inhibition occurs
C[C@@H](N)C(=O)O [D-Alanine]	higher than 2 mM
N[C@H](CO)C(=O)O [D-Serine]	higher than 9 mM
